The source of these data is patent US8394856B2, “(-)-Hydroxycitric acid for controlling inflammation” (Glykon Technologies Group, LLC, priority 2002, dated 2013).

A short description of series [1]: Body weight in the same rat study. The following applies: week 6; data not shown. The class given is in vivo, rats. The text has this:
To test the properties of HCA in various forms under conditions similar to those found in human clinical trials, the inventor arranged for rats to be fed a diet in which 30% of the calories were obtained from fat under standard conditions, with a further approximately 20% of the calories being supplied as simple sugars. Such a dietary combination of fat and simple sugars is noted as promoting a variety of metabolic imbalances and dysfunctions. The rats were intubated twice daily with one of five HCA salts or placebo. On weekends, the HCA was added to the food at an approprate dosage. The amount of HCA in each arm of 8 animals was based on the minimum dosage which had been found effective in the form of the pure trisodium salt of HCA in tests by Hoffmann-La Roche in animals ingesting a 70% glucose diet, i.e., 0.33 mmoles/kg body weight HCA given twice per day. The HCA salts used were these: KCaHCA=a mixed potassium and calcium or double metal HCA salt commercially marketed as being entirely water soluble and of relatively high purity; KHCA=a relatively clean commercial potassium salt of HCA with a good mineral ligand attachment supplying 4467 mg potassium/100 grams of material; KMgHCA=three different dosage levels of an experimental potassium and magnesium salt with special characteristics, but suspected of being relatively unstable when exposed to stomach acid. […]

For the next series, the system named is C-reactive protein. As to the kind of experiment: C-reactive protein in serum of rats fed a 30% fat, approximately 20% simple sugar diet. Format: in vivo. The following applies: salt approximately 76 mg/day. The source says:
To test the properties of HCA in various forms under conditions similar to those found in human clinical trials, the inventor arranged for rats to be fed a diet in which 30% of the calories were obtained from fat under standard conditions, with a further approximately 20% of the calories being supplied as simple sugars. Such a dietary combination of fat and simple sugars is noted as promoting a variety of metabolic imbalances and dysfunctions. The rats were intubated twice daily with one of five HCA salts or placebo. On weekends, the HCA was added to the food at an approprate dosage. The amount of HCA in each arm of 8 animals was based on the minimum dosage which had been found effective in the form of the pure trisodium salt of HCA in tests by Hoffmann-La Roche in animals ingesting a 70% glucose diet, i.e., 0.33 mmoles/kg body weight HCA given twice per day. […]
Tests were performed for C-reactive protein. […] Optical Density (OD) readings in the test kit used were 1 unit equals 50 picograms/mL. […]

For series [2] the following is noted: treated rats; Roche researchers (Sullivan and Triscari 1976); cited from earlier work.
For series [3] the following is noted: literature (Sullivan and Gruen 1985); cited from earlier work.

On to `O=C([O-])CC(O)(C(=O)[O-])C(O)C(=O)[O-].[K+].[K+].[K+]` (centres unmarked) [KHCA, potassium hydroxycitrate], for which the “body weight versus control” value in series [1] is “greatest trend differences”. Also, the “absolute CRP readings at week 4 compared with initially” value with C-reactive protein is “lower at week 4 than initially”. For the same compound, in the series on C-reactive protein (intubated twice daily, serum, start to week 4, 1 OD unit equals 50 picograms/mL), the “Δ OD units after 4 wks (C-reactive protein)” value is reported as −155 OD units.
Take `O=C(O)CC(O)(C(=O)O)C(O)C(=O)O` (single isomer, unassigned; (-)) [HCA, (−)-Hydroxycitric acid]: in series [2], the “plasma levels of glucose, insulin, or free fatty acids relative to controls” value is given as “no significant differences”. Also, the “crossing of the blood-brain barrier” value in series [3] is reported as “does not cross the blood-brain barrier”.
